According to patent publication US20220193185A1, “COMBINATION OF SYNTHETIC PEPTIDES WITH AFFINITY TO THE TGF-ß RECEPTOR AND WITH AFFINITY TO THE IL-10 RECEPTOR, PHARMACEUTICAL COMPOSITION AND THEIR USE AS IMMUNOMODULATORS IN THE TREATMENT OF AUTOIMMUNE, INFLAMMATORY OR ALLERGIC DISEASES” (Universidade Federal de Uberlândia, priority 2019, published 2022):
Bridges are numbered along the chain shown (N, C = ends). Where no end group is shown, it is not given here.

B1: rIL10: recombinant Interleukin-10, used as control (protein, UniProt P22301 19-178, looked up)
Interleukin-10: SPGQGTQSENSCTHFPGNLPNMLRDLRDAFSRVKTFFQMKDQLDNLLLKESLLEDFKGYLGCQALSEMIQFYLEEVMPQAENQDPDIKAHVNSLGENLKTLRLRLRRCHRFLPCENKSKAVEQVKNAFNKLQEKGIYKAMSEFDIFINYIEAYMTMKIRN

Experiments:
TLR4 pathway = experiment: HEK-Blue hTLR4 reporter cells, SEAP production (TGF-β1 mimetic peptides); type: cell-based; conditions: peptide pretreatment 1 hour, then LPS 100 ng/mL; 12 hours
Description: Similar to the treatment using Jurkat cells, peptides in compositions with different concentrations were also tested in HEK cells to investigate their ability to interfere with the TLR4 pathway.
To ensure that the peptides could not induce any activation when tested alone (no pathway activation molecule) only the peptides were added into the cell line and SEAP production was measured after 12 hours of treatment (Figure not shown).
The assay was performed using HEK-Blue hTLR4 reporter cells (InvivoGen) to investigate the action of peptides in the TLR4 pathway. A total of 2.3×10^4 cells/well ([…]) was pretreated with […] of composition comprising at least one of the synthetic peptides at concentrations of 100 μM, 10 μM, 1 μM, and 0.1 μM for 1 hour at 37° C. ° C. in 5% CO2 followed by LPS stimulation at 100 ng/mL for 12 hours. The same stimuli were applied to cells pretreated with LPS at 100 ng/ml for 1 hour at 37° C. in 5% CO2, followed by stimuli with peptides at 100 μM, 10 μM, 1 μM and 0.1 μM for 12 hours. Stimuli were added in Quanti-blue medium and SEAP production was measured at 655 nm. As a control, peptides at the same concentrations were tested alone to investigate whether they could activate the TLR4 pathway and LPS was used as a positive control.

[1] = aggregation behavior in solution by Dynamic Light Scattering (DLS); type: physicochemical
NFkB pathway [2] = experiment: NFkB expression in Jurkat cells, luciferase (TGF-β1 mimetic peptides); type: cell-based, human; conditions: peptide pretreatment 1 hour, then TNF-α, tested at 0.1-100 μM
Description: Two different cell treatments were performed using Jurkat cells to analyze NFkB expression after 12, 24 and 48 hours. In the first test, Jurkat cells were treated only with peptides (no pathway activating molecule) at different concentrations to analyze the ability of each peptide to induce NFkB expression (Figure not shown). None of the tested concentrations induced any type of pathway activation.
The assay was carried out in such a way that a total of 3×10^5 cells/well ([…]) was pretreated with […] of a composition comprising one of the synthetic peptides in concentrations of 100 μM, 10 μM, 1 μM, and 0.1 μM for 1 hour at 37° C. in 5% CO2, followed by stimulation with TNF-α (200 ng/ml) for 12, 24 and 48 hours. The same stimuli were applied to cells pretreated with TNF-α (200 ng/ml) for 1 hour at 37° C. in 5% CO2 followed by stimulation with peptides at 100 μM, 10 μM, 1 μM and 0.1 μM for 12, 24 and 48 hours. Then, […] of supernatant was transferred to a white plate and Quanti-Luc reagent was used to measure the luciferase product. As a control, the peptides were tested at the same concentrations, without any pathway activating molecule, to investigate whether they could activate the NFkB pathway. TNF-α (200 ng/mL) was used as a positive control and rIL-10 (0.4 ng/mL) as a negative control. […].

[3] = tested on: TGF-β1 receptor on A549 cells; experiment: ELISA on cells of the A549 line using anti-TGF-β1 antibody; type: binding, human
Description: The peptides described in this patent application were selected using the Phage Display (PD) methodology. The selection was performed by evaluating the ability of said peptides to recognize the TGF-β1 receptor on A549 cells, using an ELISA assay. MaxiSorp 96-well microtiter plates were coated with 1×10^6 cells diluted in PBS and incubated overnight at 4° C. Cells were blocked with 3% PBS-BSA for 1 h at 37° C., washed once with PBS and incubated with […] of each TGF-β1 mimetic peptide or 5 ng/ml of recombinant TGF-β1 for 1 h at 37° C. After washing, the plate was incubated for 1 h at 37° C. with anti-TGF-β1 antibody. The plate was washed and incubated with HRP-labeled anti-human IgG antibody for 1 h at 37° C. After washing, TMB substrate solution was added to the plate; the reaction was stopped by adding the 2N H2SO4 solution and read at 492 nm in a microplate reader.
To investigate whether the synthesized peptides could bind to cell receptors, an ELISA assay was performed on cells of the A549 line using commercial anti-TGF-β1 antibody.

[4] = tested on: TFGβRII/SMAD-dependent pathway; experiment: HEK-blue-TGFβ reporter cells, SEAP production; type: cell-based; conditions: 12 hours; tested at 0.1, 1, 10 and 100 μM
Description: After 12 hours of stimulation (FIG. 4A), all peptides were able to bind to the receptor.
The assay was performed in such a way that approximately 2.5×10^4 cells/well (100 μL) were treated with 100 μL of all synthetic peptides at different concentrations (100 μM, 10 μM, 1 μM and 0.1 μM) while rTGF-β1 ([…]) at 100 ng/ml was used as a positive control. After incubating the cells for 12, 24 and 48 hours at 37° C. in 5% CO2, […] of supernatant was transferred to a Greiner plate to which […] of Quanti-blue solution was added. The plate was incubated for 1 hour at 37° C. in 5% CO2 and the production of SEAP (secreted alkaline phosphatase) was detected at 655 nm. All tests were performed in triplicate.

NFkB pathway [5] = experiment: NFkB expression in Jurkat-Dual reporter cells, luciferase (IL-10 mimetic peptides); type: cell-based; conditions: for concentrations with statistically significant decrease of NFKB activation: peptide pretreatment 1 hour, then TNF-α 200 ng/ml
Description: (§1) In order to investigate the ability of synthetic peptides with affinity to the Interleukin-10 receptor to interfere in the NFkB, IFN and TLR4 pathways, reporter cell lines were used. To analyze whether the isolated peptides (without activation molecules) could induce any type of activation, the isolated peptides were tested in cell lines during 12, 24 and 48 hours of treatment. […] As an example, FIG. 13A, FIG. 13B, and FIG. 13C show an analysis of NFkB expression after stimulation with the synthesized IL-10 receptor affinity synthetic peptides described herein. Cells were treated for 12, 24 and 48 hours with the synthesized peptides Pep 1-IL10, Pep 2-IL10, Pep 3-IL10 and Pep 4-IL10, at different concentrations, without activating molecules. Luciferase was then measured after 12 hours of treatment (FIG. 13A), 24 hours of treatment (FIG. 13B) and 48 hours of treatment (FIG. 13C). […] TNF-α (200 ng/mL) was used as a positive control.
The assay was then carried out using TNF-α as activation molecule not only in the control, but after a pretreatment with the synthesized peptides Pep 1-IL10, Pep 2-IL10, Pep 3-IL10 and Pep 4-IL10, at different concentrations. All peptides were able to modulate NFKB activation after 12, 24 and 48 hours, with different results depending on the concentrations used. […] In the assays shown by FIGS. 14 A, B and C, analysis of NFkB expression was performed in Jurkat-Dual reporter cells. Cells were treated for 1 hour with peptides and TNF-α (200 ng/ml) added. Luciferase was measured after 12 hours of treatment (FIG. 14A), 24 hours of treatment (FIG. 14B) and 48 hours of treatment (FIG. 14C).
Another assay was then performed in which cells were pretreated with TNF-α and the synthesized peptides Pep 1-IL10, Pep 2-IL10, Pep 3-IL10 and Pep 4-IL10, at different concentrations, were added later. All peptides were able to modulate NFKB activation after 12, 24 and 48 hours, with different results depending on the concentrations used. The most significant results will be described below. […] After 48 hours of treatment, Pep 1-IL-10 at a concentration of 0.001 μM (P<0.05) was the one that obtained a result with the highest statistical significance in the decrease of NFKB signaling (FIG. 15C). In the assays shown by FIGS. 15 A, B and C, analysis of NFkB expression was performed in Jurkat-Dual reporter cells. Cells were treated for 1 hour with TNF-α (200 ng/ml) and peptides were added. Luciferase was measured after 12 hours of treatment (FIG. 15A), 24 hours of treatment (FIG. 15B) and 48 hours of treatment (FIG. 15C). TNF-α (200 ng/mL) was used as a positive control and rlL-10 (recombinant Interleukin-10) (0.4 ng/mL) as a negative control. *P<0.05; **P<0.005; ***P<0.0005.

J774 cell line = experiment: cytokine production after treatment of the J774 cell line; type: cell-based
Description: After 24 hours of treatment, the levels of IL-6, MCP-1 and TNF-α produced were measured.
Decreases were significant compared to cells treated with LPS alone (positive control). *P<0.05; **P<0.005; ***P<0.0005.

[6] = tested on: rat basophilic leukemia cells transfected with the human FIϵRI IgE receptor (hRBL); experiment: IgE-mediated release in hRBL cells sensitized with serum from patients allergic to birch pollen, Bet v 1; type: cell-based; conditions: Pep 1-IL-10 at 1 μM; serum from seven birch pollen allergic donors
Description: The effect of IL-10 mimetic peptides on IgE-mediated release was examined using rat basophilic leukemia cells transfected with the human FIϵRI IgE receptor (hRBL). As an example, we selected as an example Pep 1-IL-10 to show the data obtained. The hRBL cells were sensitized with serum from seven patients allergic to birch pollen. Cells were stimulated with the antigen and its interaction with immobilized IgEs caused a release of b-hexosaminidase.
When cells were treated with a composition comprising Pep 1-IL-10 at 1 μM (FIG. 21A) or rIL10 (FIG. 21B), the amount of Bet v 1 needed to induce the same amount of degranulation was higher when compared to cells treated only with Bet vl (P<0.05). Amount of rBet v 1 (ng/mL) required to induce half the release of b-hexosaminidase using serum from seven birch pollen allergic donors after treatment with Pep 1-IL-10 (A) (P<0.05) and rIL10 (B)*P<0.05.

IFN signaling pathway = IFN signaling pathway in Jurkat-Dual reporter cells, SEAP production; type: cell-based; conditions: after 12, 24 and 48 hours; results depend on concentration
Description: as §1
The most significant results will be described below. […] When cells were pretreated with IFN, although peptides at some concentrations indicated results, they were not statistically sufficient. Therefore, we cannot confirm whether they were able to interfere with pathway activation (FIGS. 17 A, B and C) in an equal or better way than the negative control (rIL-10). In the assays shown by FIGS. 16 (A, B and C) and FIGS. 17 (A, B and C), analysis of IFN expression was performed in Jurkat-Dual reporter cells. In the assays shown by FIGS. 16 A, B and C, cells were treated for 1 hour with peptides with further addition of IFN-α (104 EU/ml). Secreted Embryonic Alkaline Phosphatase (SEAP) production was measured after 12 hours of treatment (FIG. 16A), 24 hours of treatment (FIG. 16 B) and 48 hours of treatment (FIG. 16 C). In the assays shown by FIGS. 17A, B and C, cells were treated for 1 hour with IFN-α (104 EU/ml) with further addition of the peptides. SEAP production was measured after (A) 12 hours of treatment (B), 24 hours of treatment and (C) 48 hours of treatment. IFN-α (104 EU/ml) was used as a positive control and rlL-10 (0.4 ng/ml) as a negative control. *P<0.05.

[7] = peptide followed by LPS, 24 hours

Molecule | concentrations with statistically significant reduction of TLR4 pathway activation (TLR4 pathway) | hydrodynamic radius ([1]; TGF-β1 mimetic peptides in solution) [nm] | concentrations with statistically significant decrease of NFKB pathway activation vs TNF-α control (NFkB pathway [2]; 24 hours) | concentrations with statistically significant decrease of NFKB pathway activation vs TNF-α control (NFkB pathway [2]; 48 hours) [µM] | recognition of receptor-bound peptide by anti-TGF-β1 antibody compared to recombinant TGF-β1 [3] | concentrations with statistically significant activation of the SMAD-dependent pathway (SEAP) [4] | concentration with highest statistical significance in the decrease of NFKB signaling (NFkB pathway [5]; cells pretreated 1 hour with TNF-α 200 ng/ml, peptides added, 48 hours) [µM] | concentrations with statistically significant decrease of NFKB activation (NFkB pathway [5]; 12 hours) | concentrations with statistically significant decrease of NFKB activation (NFkB pathway [5]; 24 hours) | concentrations with statistically significant decrease of NFKB activation (NFkB pathway [5]; 48 hours) | induction of NFkB expression by peptides alone (NFkB pathway [5]; without activating molecules, 12, 24 and 48 hours, different concentrations) | production of IL-10, IFN-g or IL12p70 (J774 cell line; 24 hours of treatment) | production of IL-6, MCP-1 and TNF-α (J774 cell line; peptide followed by LPS for 24 hours) | concentrations that significantly reduced IL-6 levels vs LPS alone (J774 cell line; [7]) | concentrations that significantly reduced MCP-1 levels vs LPS alone (J774 cell line; [7]) | concentrations that significantly reduced TNF-α levels vs LPS alone (J774 cell line; [7]) | cytokine response to peptide alone (J774 cell line; without LPS stimulation, 24 hours) | measured hydrodynamic radius ([1]; IL-10 mimetic peptides in solution) [nm] | amount of Bet v 1 needed to induce the same amount of degranulation (half the release of b-hexosaminidase) vs Bet v 1 only [6] | modulation of the activation of the IFN signaling pathway (IFN signaling pathway)
Pep 7-TGF-β1: synthetic peptide with affinity to the TGF-β receptor, SEQ ID N 07, free of disulfide bridges (HASTIASTLHSGGGS) | 0.1 μM; 1 μM and 10 μM | 2.94 | 1 µM and 100 µM | 1 | recognized as statistically different | 0.1 μM: 1 μM; 10 μM and 100 μM | – | – | – | – | – | – | – | – | – | – | – | – | – | –
Pep 1-IL-10: synthetic peptide with affinity to the Interleukin-10 receptor, SEQ ID 09, with disulfide bridges (HACSAVIKSSCGGGS; disulfide 3-11 (inferred)) | – | – | – | – | – | – | 0.001 | all concentrations tested | all concentrations tested | all concentrations tested | not able to induce any response | No interference | able to decrease | 1 μM, 10 μM and 100 μM | 1 µM and 10 µM | 1 μM, 10 μM and 100 μM | unable to induce any response | 0.82 | higher | able to modulate the activation of the IFN signaling pathway
B1 | – | – | – | – | – | – | – | – | – | – | – | – | – | – | – | – | – | – | higher | –
